Measured values from PubChem BioAssay (NCI).
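Exposure lasted 48 hours, with cells grown in 96-well plates and compounds tested at five concentrations. Here, GI50 denotes the concentration required for 50% inhibition of growth. Definition used: TGI = concentration required for complete inhibition of growth.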

Tests used:
Experiment in all cases: DTP human tumour cell line panel, 48 h
IGROV1 ovarian = test system: IGROV1 ovarian
786-0 renal = test system: 786-0 renal
K-562 leukemia = test system: K-562 leukemia
SN12C renal = test system: SN12C renal
NCI-H522 lung = test system: NCI-H522 lung
SK-MEL-2 melanoma = test system: SK-MEL-2 melanoma
SK-MEL-28 melanoma = test system: SK-MEL-28 melanoma
BT-549 breast = test system: BT-549 breast
SNB-75 CNS = test system: SNB-75 CNS
A498 renal = test system: A498 renal
NCI-H23 lung = test system: NCI-H23 lung
NCI-H460 lung = test system: NCI-H460 lung
MDA-MB-435 = test system: MDA-MB-435
HS 578T breast = test system: HS 578T breast
HOP-62 NSCLC = test system: HOP-62 NSCLC
M14 melanoma = test system: M14 melanoma
CCRF-CEM leukemia = test system: CCRF-CEM leukemia
A549 NSCLC = test system: A549 NSCLC
HL-60(TB) leukemia = test system: HL-60(TB) leukemia
UACC-62 melanoma = test system: UACC-62 melanoma
OVCAR-3 ovarian = test system: OVCAR-3 ovarian
DU-145 prostate = test system: DU-145 prostate
OVCAR-8 ovarian = test system: OVCAR-8 ovarian
SF-539 CNS = test system: SF-539 CNS
SW-620 colon = test system: SW-620 colon
CAKI-1 renal = test system: CAKI-1 renal
EKVX NSCLC = test system: EKVX NSCLC
RPMI-8226 leukemia = test system: RPMI-8226 leukemia
UACC-257 melanoma = test system: UACC-257 melanoma
PC-3 prostate = test system: PC-3 prostate
UO-31 renal = test system: UO-31 renal
KM12 colon = test system: KM12 colon
LOX IMVI melanoma = test system: LOX IMVI melanoma
TK-10 renal = test system: TK-10 renal
HOP-92 NSCLC = test system: HOP-92 NSCLC
ACHN renal = test system: ACHN renal
COLO 205 colon = test system: COLO 205 colon
HT29 colon = test system: HT29 colon
SK-MEL-5 melanoma = test system: SK-MEL-5 melanoma
NCI/ADR-RES ovarian = test system: NCI/ADR-RES ovarian
SF-268 CNS = test system: SF-268 CNS
HCC-2998 colon = test system: HCC-2998 colon
NCI-H226 lung = test system: NCI-H226 lung
T-47D breast = test system: T-47D breast
HCT-15 colon = test system: HCT-15 colon
OVCAR-5 ovarian = test system: OVCAR-5 ovarian
SR leukemia = test system: SR leukemia
MALME-3M melanoma = test system: MALME-3M melanoma
U251 CNS = test system: U251 CNS
MOLT-4 leukemia = test system: MOLT-4 leukemia
MCF7 breast = test system: MCF7 breast
HCT-116 colon = test system: HCT-116 colon
SNB-19 CNS = test system: SNB-19 CNS
SF-295 CNS = test system: SF-295 CNS
MDA-MB-231 breast = test system: MDA-MB-231 breast
OVCAR-4 ovarian = test system: OVCAR-4 ovarian
RXF 393 renal = test system: RXF 393 renal

Q: For `CC(C)(C)C(=O)OCOP(=O)(NCc1ccccc1)C1CCCN(O)C1=O` (centres undefined), which GI50 (IGROV1 ovarian) is on record?
A: 2.91 µM

Q: And the TGI (IGROV1 ovarian)?
A: 9.59 µM

Q: And the GI50 (786-0 renal)?
A: 3.15 µM

Q: And the TGI (786-0 renal)?
A: > 100 µM

Q: What about the GI50 (K-562 leukemia) of the same compound?
A: 1.13 µM

Q: What about the TGI (K-562 leukemia) of the same compound?
A: > 100 µM

Q: And the GI50 (SN12C renal)?
A: 0.752 µM

Q: And the TGI (SN12C renal)?
A: 9.21 µM

Q: And the GI50 (NCI-H522 lung)?
A: 1.78 µM

Q: What about the TGI (NCI-H522 lung) of the same compound?
A: 21.9 µM

Q: What about the GI50 (SK-MEL-2 melanoma) of the same compound?
A: 2.85 µM

Q: And the TGI (SK-MEL-2 melanoma)?
A: 15.6 µM

Q: And the GI50 (SK-MEL-28 melanoma)?
A: 1.74 µM

Q: What about the TGI (SK-MEL-28 melanoma) of the same compound?
A: 5.68 µM

Q: And the GI50 (BT-549 breast)?
A: 5.81 µM

Q: What about the TGI (BT-549 breast) of the same compound?
A: 53.4 µM

Q: What about the GI50 (SNB-75 CNS) of the same compound?
A: 4.97 µM

Q: And the TGI (SNB-75 CNS)?
A: 39.1 µM

Q: What about the GI50 (A498 renal) of the same compound?
A: 0.692 µM

Q: What about the TGI (A498 renal) of the same compound?
A: 9.18 µM

Q: What about the GI50 (NCI-H23 lung) of the same compound?
A: 2.77 µM

Q: And the TGI (NCI-H23 lung)?
A: 13.4 µM

Q: And the GI50 (NCI-H460 lung)?
A: 1.75 µM

Q: And the TGI (NCI-H460 lung)?
A: 15.5 µM

Q: And the GI50 (MDA-MB-435)?
A: 4.09 µM

Q: What about the TGI (MDA-MB-435) of the same compound?
A: 71.9 µM

Q: And the GI50 (HS 578T breast)?
A: 1.28 µM

Q: And the TGI (HS 578T breast)?
A: 6.64 µM

Q: What about the GI50 (HOP-62 NSCLC) of the same compound?
A: 2.55 µM

Q: What about the TGI (HOP-62 NSCLC) of the same compound?
A: 32.8 µM

Q: And the GI50 (M14 melanoma)?
A: 2.91 µM

Q: What about the TGI (M14 melanoma) of the same compound?
A: 18.7 µM

Q: What about the GI50 (CCRF-CEM leukemia) of the same compound?
A: 0.558 µM

Q: And the TGI (CCRF-CEM leukemia)?
A: > 100 µM

Q: What about the GI50 (A549 NSCLC) of the same compound?
A: 2.79 µM

Q: What about the TGI (A549 NSCLC) of the same compound?
A: > 100 µM

Q: And the GI50 (HL-60(TB) leukemia)?
A: 3.59 µM

Q: What about the TGI (HL-60(TB) leukemia) of the same compound?
A: 13.7 µM

Q: And the GI50 (UACC-62 melanoma)?
A: 2.22 µM

Q: What about the TGI (UACC-62 melanoma) of the same compound?
A: 6.49 µM

Q: What about the GI50 (OVCAR-3 ovarian) of the same compound?
A: 1.04 µM

Q: What about the TGI (OVCAR-3 ovarian) of the same compound?
A: 9 µM

Q: What about the GI50 (DU-145 prostate) of the same compound?
A: 4.03 µM

Q: What about the TGI (DU-145 prostate) of the same compound?
A: > 100 µM

Q: And the GI50 (OVCAR-8 ovarian)?
A: 1.17 µM

Q: And the TGI (OVCAR-8 ovarian)?
A: > 100 µM

Q: What about the GI50 (SF-539 CNS) of the same compound?
A: 3.2 µM

Q: And the TGI (SF-539 CNS)?
A: 16.5 µM

Q: What about the GI50 (SW-620 colon) of the same compound?
A: 2.87 µM

Q: And the TGI (SW-620 colon)?
A: > 100 µM

Q: And the GI50 (CAKI-1 renal)?
A: 3.5 µM

Q: What about the TGI (CAKI-1 renal) of the same compound?
A: > 100 µM

Q: And the GI50 (EKVX NSCLC)?
A: 3.91 µM

Q: What about the TGI (EKVX NSCLC) of the same compound?
A: 78.8 µM

Q: What about the GI50 (RPMI-8226 leukemia) of the same compound?
A: 2.25 µM

Q: And the TGI (RPMI-8226 leukemia)?
A: 7.28 µM

Q: What about the GI50 (UACC-257 melanoma) of the same compound?
A: 5.11 µM

Q: What about the TGI (UACC-257 melanoma) of the same compound?
A: 55.4 µM

Q: What about the GI50 (PC-3 prostate) of the same compound?
A: 5.08 µM

Q: What about the TGI (PC-3 prostate) of the same compound?
A: > 100 µM

Q: And the GI50 (UO-31 renal)?
A: 0.349 µM

Q: What about the TGI (UO-31 renal) of the same compound?
A: 2.99 µM

Q: And the GI50 (KM12 colon)?
A: 1.13 µM

Q: What about the TGI (KM12 colon) of the same compound?
A: 3.56 µM

Q: And the GI50 (LOX IMVI melanoma)?
A: 2.85 µM

Q: And the TGI (LOX IMVI melanoma)?
A: 15.8 µM

Q: And the GI50 (TK-10 renal)?
A: 3.12 µM

Q: What about the TGI (TK-10 renal) of the same compound?
A: 43.2 µM

Q: And the GI50 (HOP-92 NSCLC)?
A: 1.06 µM

Q: What about the TGI (HOP-92 NSCLC) of the same compound?
A: 7.72 µM

Q: And the GI50 (ACHN renal)?
A: 2.5 µM

Q: And the TGI (ACHN renal)?
A: 67.4 µM

Q: And the GI50 (COLO 205 colon)?
A: 2.47 µM

Q: What about the TGI (COLO 205 colon) of the same compound?
A: 13.7 µM

Q: And the GI50 (HT29 colon)?
A: 3.35 µM

Q: And the TGI (HT29 colon)?
A: 61.9 µM

Q: What about the GI50 (SK-MEL-5 melanoma) of the same compound?
A: 1.76 µM

Q: And the TGI (SK-MEL-5 melanoma)?
A: 4.33 µM

Q: What about the GI50 (NCI/ADR-RES ovarian) of the same compound?
A: 2.03 µM

Q: And the TGI (NCI/ADR-RES ovarian)?
A: 6.65 µM

Q: And the GI50 (SF-268 CNS)?
A: 2.09 µM

Q: And the TGI (SF-268 CNS)?
A: > 100 µM

Q: What about the GI50 (HCC-2998 colon) of the same compound?
A: 2.37 µM

Q: What about the TGI (HCC-2998 colon) of the same compound?
A: 12 µM

Q: What about the GI50 (NCI-H226 lung) of the same compound?
A: 0.462 µM

Q: What about the TGI (NCI-H226 lung) of the same compound?
A: 3.43 µM

Q: What about the GI50 (T-47D breast) of the same compound?
A: 1.98 µM

Q: What about the TGI (T-47D breast) of the same compound?
A: 57.6 µM

Q: What about the GI50 (HCT-15 colon) of the same compound?
A: 2.75 µM

Q: What about the TGI (HCT-15 colon) of the same compound?
A: 25.9 µM

Q: And the GI50 (OVCAR-5 ovarian)?
A: 8.99 µM

Q: What about the TGI (OVCAR-5 ovarian) of the same compound?
A: > 100 µM

Q: What about the GI50 (SR leukemia) of the same compound?
A: 0.985 µM

Q: And the TGI (SR leukemia)?
A: > 100 µM

Q: What about the GI50 (MALME-3M melanoma) of the same compound?
A: 1 µM

Q: What about the TGI (MALME-3M melanoma) of the same compound?
A: 6.96 µM

Q: And the GI50 (U251 CNS)?
A: 2.45 µM

Q: And the TGI (U251 CNS)?
A: > 100 µM

Q: And the GI50 (MOLT-4 leukemia)?
A: 2.61 µM

Q: And the TGI (MOLT-4 leukemia)?
A: 14.4 µM

Q: What about the GI50 (MCF7 breast) of the same compound?
A: 2.41 µM

Q: And the TGI (MCF7 breast)?
A: 11.1 µM

Q: And the GI50 (HCT-116 colon)?
A: 2.84 µM

Q: And the TGI (HCT-116 colon)?
A: 14.4 µM

Q: What about the GI50 (SNB-19 CNS) of the same compound?
A: 3.12 µM

Q: What about the TGI (SNB-19 CNS) of the same compound?
A: 24.9 µM

Q: And the GI50 (SF-295 CNS)?
A: 3.23 µM

Q: What about the TGI (SF-295 CNS) of the same compound?
A: 29.5 µM

Q: What about the GI50 (MDA-MB-231 breast) of the same compound?
A: 2.3 µM

Q: And the TGI (MDA-MB-231 breast)?
A: 19.9 µM

Q: And the GI50 (OVCAR-4 ovarian)?
A: 2.1 µM

Q: And the TGI (OVCAR-4 ovarian)?
A: 71.9 µM

Q: And the GI50 (RXF 393 renal)?
A: 1.76 µM

Q: What about the TGI (RXF 393 renal) of the same compound?
A: 6.48 µM
